Experimental data reported in ChEMBL document CHEMBL3046235, “In vitro biological activities of new heterocyclic chalcone derivatives” (Med Chem Res, 2013).
Values after ≈ are worked out from the molar mass of the structure shown. Active and inactive are the calls of the source. No cut-off for these calls is given here.

How the values were obtained:
[1] = system: Radical scavenging activity; experiment: Antioxidant activity assessed as DPPH radical scavenging activity at 15 ug/ml after 30 min by spectrophotometric analysis; format: functional
Bacillus subtilis [2] = experiment: Antimicrobial activity against Bacillus subtilis isolated from infected patient assessed as growth inhibition by disk diffusion method; format: functional
Bacillus subtilis [3] = experiment: Antimicrobial activity against Bacillus subtilis isolated from infected patient assessed as diameter of growth inhibition zone at 40 ug/ml by disk diffusion method; format: functional; details: read-out: DIZ
Candida albicans [4] = experiment: Antimicrobial activity against Candida albicans assessed as growth inhibition by disk diffusion method; format: functional
Goatpox virus [5] = experiment: Antiviral activity against Goatpox virus infected African green monkey Vero cells assessed as inhibition of viral replication at MNTC dose incubated for 24 hr measured after 6 days; format: functional
Camelpox virus [6] = experiment: Antiviral activity against Camelpox virus infected African green monkey Vero cells assessed as inhibition of viral replication at MNTC dose incubated for 24 hr measured after 3 days; format: functional
Candida albicans [7] = experiment: Antimicrobial activity against Candida albicans assessed as diameter of growth inhibition zone at 40 ug/ml by disk diffusion method; format: functional; details: read-out: DIZ
Camelpox virus [8] = experiment: Antiviral activity against Camelpox virus infected African green monkey Vero cells assessed as reduction of virus titers at MNTC dose incubated for 24 hr measured after 3 days by TCID50 assay; format: functional, organism-based
Staphylococcus aureus [9] = experiment: Antimicrobial activity against Staphylococcus aureus isolated from infected patient assessed as diameter of growth inhibition zone at 40 ug/ml by disk diffusion method; format: functional; details: read-out: DIZ
Escherichia coli [10] = experiment: Antimicrobial activity against Escherichia coli isolated from infected patient assessed as diameter of growth inhibition zone at 40 ug/ml by disk diffusion method; format: functional; details: read-out: DIZ
HepG2 [11] = experiment: Cytotoxicity against Homo sapiens (human) HepG2 cells assessed as inhibition of cell viability by trypan blue exclusion method; format: functional; details: read-out: LC50 (the source's name)
Escherichia coli [12] = experiment: Antimicrobial activity against Escherichia coli isolated from infected patient assessed as growth inhibition by disk diffusion method; format: functional
Buffalopox virus [13] = experiment: Antiviral activity against Buffalopox virus virus infected African green monkey Vero cells assessed as reduction of virus titers at MNTC dose incubated for 24 hr measured after 4 days by TCID50 assay; format: functional, organism-based
Buffalopox virus [14] = experiment: Antiviral activity against Buffalopox virus virus infected African green monkey Vero cells assessed as inhibition of viral replication at MNTC dose incubated for 24 hr measured after 4 days; format: functional
Aspergillus niger [15] = experiment: Antimicrobial activity against Aspergillus niger assessed as growth inhibition by disk diffusion method; format: functional
Vero = experiment: Cytotoxicity against Chlorocebus aethiops (African green monkey) Vero cells assessed as change in morphological changes after 4 days by inverted microscopic analysis; format: cell-based; details: chlorocebus sabaeus, 96 h
Goatpox virus [16] = experiment: Antiviral activity against Goatpox virus infected African green monkey Vero cells assessed as reduction of virus titers at MNTC dose incubated for 24 hr measured after 6 days by TCID50 assay; format: functional, organism-based
Salmonella typhi [17] = experiment: Antimicrobial activity against Salmonella enterica subsp. enterica serovar Typhi isolated from infected patient assessed as growth inhibition by disk diffusion method; format: functional
Aspergillus niger [18] = experiment: Antimicrobial activity against Aspergillus niger assessed as diameter of growth inhibition zone at 40 ug/ml by disk diffusion method; format: functional; details: read-out: DIZ
Staphylococcus aureus [19] = experiment: Antimicrobial activity against Staphylococcus aureus isolated from infected patient assessed as growth inhibition by disk diffusion method; format: functional
Salmonella typhi [20] = experiment: Antimicrobial activity against Salmonella enterica subsp. enterica serovar Typhi isolated from infected patient assessed as diameter of growth inhibition zone at 40 ug/ml by disk diffusion method; format: functional; details: read-out: DIZ
HepG2 [21] = experiment: Growth inhibition of Homo sapiens (human) HepG2 cells at 25 to 100 ug/ml after 48 hr by MTT assay; format: functional, cell-based
HepG2 [22] = experiment: Growth inhibition of Homo sapiens (human) HepG2 cells at 100 ug/ml after 48 hr by MTT assay; format: functional; details: HepG2, 48 h, read-out: GI
HepG2 [23] = experiment: Growth inhibition of Homo sapiens (human) HepG2 cells up to 75 ug/ml after 48 hr by MTT assay; format: functional, cell-based

Compound | Activity [1] | MIC (Bacillus subtilis [2]) | zone of inhibition at 40 µg/mL (Bacillus subtilis [3]) | MIC (Candida albicans [4]) | inhibition (INH) (Goatpox virus [5]) | inhibition (INH) (Camelpox virus [6]) | zone of inhibition at 40 µg/mL (Candida albicans [7]) | inhibition (Camelpox virus [8]) | zone of inhibition at 40 µg/mL (Staphylococcus aureus [9]) | zone of inhibition at 40 µg/mL (Escherichia coli [10]) | CC50 (HepG2 [11]) | MIC (Escherichia coli [12]) | inhibition (Buffalopox virus [13]) | inhibition (INH) (Buffalopox virus [14]) | MIC (Aspergillus niger [15]) | MNTD (Vero) | inhibition (Goatpox virus [16]) | MIC (Salmonella typhi [17]) | zone of inhibition at 40 µg/mL (Aspergillus niger [18]) | zone of inhibition at 40 µg/mL (Salmonella typhi [20]) | further results
Cc1cc(C(=O)/C=C/c2c[nH]c3ccccc23)c(C)o1 | 31% | 40 µg/mL (≈ 151 µM) | 22 mm | 40 µg/mL (≈ 151 µM) | 0% | 0% | 19 mm | inactive | 22 mm | 21 mm | 81 µg/mL (≈ 305 µM) | 40 µg/mL (≈ 151 µM) | inactive | 0% | 40 µg/mL (≈ 151 µM) | 75 µg | inactive | 30 µg/mL (≈ 113 µM) | 11 mm | 22 mm | MIC (Staphylococcus aureus [19]): 20 µg/mL (≈ 75.4 µM)
O=C(/C=C/c1ccc(-c2ccccc2)cc1)c1ccsc1 | 31% | 30 µg/mL (≈ 103 µM) | 18 mm | 30 µg/mL (≈ 103 µM) | 0% | 0% | 30 mm | inactive | 17 mm | 22 mm | 13 µg/mL (≈ 44.8 µM) | 30 µg/mL (≈ 103 µM) | inactive | 0% | 40 µg/mL (≈ 138 µM) | 7.8 µg | inactive | 30 µg/mL (≈ 103 µM) | 24 mm | 15 mm | MIC (Staphylococcus aureus [19]): 30 µg/mL (≈ 103 µM); growth inhibition (GI) (HepG2 [21]): Active
CCc1ccc(/C=C/C(=O)c2cc(C)oc2C)o1 | 31% | 30 µg/mL (≈ 123 µM) | 24 mm | 40 µg/mL (≈ 164 µM) | 0% | 0% | 21 mm | inactive | 18 mm | 27 mm | 69 µg/mL (≈ 282 µM) | 40 µg/mL (≈ 164 µM) | inactive | 0% | 40 µg/mL (≈ 164 µM) | 2.08 µg | inactive | 40 µg/mL (≈ 164 µM) | 22 mm | 23 mm | MIC (Staphylococcus aureus [19]): 40 µg/mL (≈ 164 µM)
OC(Cn1cncn1)(Cn1cncn1)c1ccc(F)cc1F [FLUCONAZOLE] |  |  |  |  |  |  | 24 mm |  |  |  |  |  |  |  |  |  |  |  | 25 mm |  | 
O=C(/C=C/c1ccc[nH]1)c1ccsc1 | 31% | 30 µg/mL (≈ 148 µM) | 23 mm | 40 µg/mL (≈ 197 µM) | 0% | 0% | 23 mm | inactive | 16 mm | 24 mm | 21 µg/mL (≈ 103 µM) | 40 µg/mL (≈ 197 µM) | inactive | 0% | 30 µg/mL (≈ 148 µM) | 4.68 µg | inactive | 40 µg/mL (≈ 197 µM) | 23 mm | 23 mm | MIC (Staphylococcus aureus [19]): 40 µg/mL (≈ 197 µM)
COc1ccc(/C=C/C(=O)c2ccsc2)cc1 | 31% | 30 µg/mL (≈ 123 µM) | 24 mm | 30 µg/mL (≈ 123 µM) | 0% | 0% | 25 mm | inactive | 25 mm | 26 mm | 12 µg/mL (≈ 49.1 µM) | 20 µg/mL (≈ 81.9 µM) | inactive | 0% | 30 µg/mL (≈ 123 µM) | 6.24 µg | inactive | 40 µg/mL (≈ 164 µM) | 23 mm | 24 mm | MIC (Staphylococcus aureus [19]): 20 µg/mL (≈ 81.9 µM); growth inhibition (GI) (HepG2 [21]): Active
CCc1ccc(/C=C/C(=O)c2ccsc2)o1 | 31% | 20 µg/mL (≈ 86.1 µM) | 25 mm | 20 µg/mL (≈ 86.1 µM) | 0% | 0% | 25 mm | inactive | 23 mm | 25 mm | 8 µg/mL (≈ 34.4 µM) | 30 µg/mL (≈ 129 µM) | inactive | 0% | 40 µg/mL (≈ 172 µM) | 58.3 µg | inactive | 20 µg/mL (≈ 86.1 µM) | 23 mm | 26 mm | MIC (Staphylococcus aureus [19]): 20 µg/mL (≈ 86.1 µM); growth inhibition (GI) (HepG2 [21]): Active
Cc1cc(C(=O)/C=C/c2ccc[nH]2)c(C)o1 | 31% | 30 µg/mL (≈ 139 µM) | 21 mm | 30 µg/mL (≈ 139 µM) | 0% | 0% | 17 mm | inactive | 21 mm | 18 mm | 59 µg/mL (≈ 274 µM) | 40 µg/mL (≈ 186 µM) | inactive | 0% | 40 µg/mL (≈ 186 µM) | 25 µg | inactive | 40 µg/mL (≈ 186 µM) | 21 mm | 19 mm | MIC (Staphylococcus aureus [19]): 30 µg/mL (≈ 139 µM)
Cc1cc(C(=O)/C=C/c2ccc(-c3ccccc3)cc2)c(C)o1 | 31% | 30 µg/mL (≈ 99.2 µM) | 24 mm | 20 µg/mL (≈ 66.1 µM) | 0% | 0% | 23 mm | inactive | 16 mm | 23 mm | 92 µg/mL (≈ 304 µM) | 20 µg/mL (≈ 66.1 µM) | inactive | 0% | 20 µg/mL (≈ 66.1 µM) | 4.68 µg | inactive | 30 µg/mL (≈ 99.2 µM) | 23 mm | 22 mm | inhibition of growth at 100 µg/mL (HepG2 [22]): 67%; growth inhibition (GI) (HepG2 [23]): Active; MIC (Staphylococcus aureus [19]): 20 µg/mL (≈ 66.1 µM)
COc1ccc(/C=C/C(=O)c2cc(C)oc2C)cc1 | 64.9% | 40 µg/mL (≈ 156 µM) | 23 mm | 30 µg/mL (≈ 117 µM) | 0% | 0% | 18 mm | inactive | 21 mm | 21 mm | 63 µg/mL (≈ 246 µM) | 30 µg/mL (≈ 117 µM) | inactive | 0% | 30 µg/mL (≈ 117 µM) | 1.3 µg | inactive | 20 µg/mL (≈ 78 µM) | 18 mm | 24 mm | MIC (Staphylococcus aureus [19]): 40 µg/mL (≈ 156 µM)
O=C(/C=C/c1c[nH]c2ccccc12)c1ccsc1 | 31% | 40 µg/mL (≈ 158 µM) | 16 mm | 30 µg/mL (≈ 118 µM) | 0% | 0% | 28 mm | inactive | 19 mm | 20 mm | 36 µg/mL (≈ 142 µM) | 30 µg/mL (≈ 118 µM) | inactive | 0% | 30 µg/mL (≈ 118 µM) | 1.3 µg | inactive | 30 µg/mL (≈ 118 µM) | 24 mm | 19 mm | MIC (Staphylococcus aureus [19]): 30 µg/mL (≈ 118 µM)
O=C(O)c1cn(C2CC2)c2cc(N3CCNCC3)c(F)cc2c1=O [CIPROFLOXACIN] |  |  | 23 mm |  |  |  |  |  | 24 mm |  |  |  |  |  |  |  |  |  |  | 23 mm | 
